Values joined by “and” are separate entries in the source; they are usually repeats but may differ in a detail not shown here. Equal values may be shown once. Toxic doses and inconclusive results are not listed.
Tested on: CD2F1 mice, L1210 leukemia ip, survival T/C
Experiment: NCI In Vivo Anticancer Drug Screen. Data for tumor model L1210 Leukemia (intraperitoneal) in CD2F1 (CDF1) mice
Conditions: higher = longer survival
Procedure, shortened: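 Tumor-bearing mice (transplanted tumor) were split into treated and vehicle control groups, and the measured endpoint of each treated group was divided by that of its vehicle controls.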

[1] = endpoint: mean survival time, dose: 100.0 mg/kg/injection, schedule: Q01DX001 (ip), vehicle: saline
[2] = endpoint: mean survival time, dose: 100.0 mg/kg/injection, schedule: Q04DX003 (ip), vehicle: saline
[3] = endpoint: mean survival time, dose: 200.0 mg/kg/injection, schedule: Q01DX001 (ip), vehicle: saline
[4] = endpoint: mean survival time, dose: 200.0 mg/kg/injection, schedule: Q04DX003 (ip), vehicle: saline
[5] = endpoint: mean survival time, dose: 400.0 mg/kg/injection, schedule: Q04DX003 (ip), vehicle: saline
[6] = endpoint: mean survival time, dose: 100.0 mg/kg/injection, schedule: Q04DX003 (ip), vehicle: saline with Tween-80
[7] = endpoint: mean survival time, dose: 200.0 mg/kg/injection, schedule: Q04DX003 (ip), vehicle: saline with Tween-80
[8] = endpoint: mean survival time, dose: 25.0 mg/kg/injection, schedule: Q04DX003 (ip), vehicle: saline with Tween-80
[9] = endpoint: mean survival time, dose: 50.0 mg/kg/injection, schedule: Q04DX003 (ip), vehicle: saline with Tween-80
[10] = endpoint: mean survival time, dose: 50.0 mg/kg/injection, schedule: Q04DX003 (ip), vehicle: saline
[11] = endpoint: mean survival time, dose: 100.0 mg/kg/injection, schedule: Q01DX009 (ip), vehicle: saline with Tween-80
[12] = endpoint: mean survival time, dose: 200.0 mg/kg/injection, schedule: Q01DX009 (ip), vehicle: saline with Tween-80
[13] = endpoint: mean survival time, dose: 400.0 mg/kg/injection, schedule: Q01DX009 (ip), vehicle: saline with Tween-80
[14] = endpoint: mean survival time, dose: 50.0 mg/kg/injection, schedule: Q01DX009 (ip), vehicle: saline with Tween-80
[15] = endpoint: mean survival time, dose: 25.0 mg/kg/injection, schedule: Q01DX009 (ip), vehicle: saline with Tween-80

C=CCCCCC/C=C/CCCCCC
T/C [1]: 96 % of control
T/C [2]: 108 % of control
T/C [3]: 98 % of control
T/C [4]: 103 % of control
T/C (endpoint: mean survival time, dose: 400.0 mg/kg/injection, schedule: Q01DX001 (ip), vehicle: saline): 104 % of control
T/C [5]: 106 % of control

NCC1CC2C=CC1C2 (stereo not given)
T/C [1]: 100 % of control
T/C [3]: 93 % of control

CC1=C(Br)C(=O)C(C(O)(C(F)(F)F)C(F)(F)F)C(C)(C)C1 (stereo not given)
T/C [6]: 96 % of control
T/C [7]: 96 % of control

CC(C)(C)CC(C)(C)NCC(O)COc1ccc(C(C)(C)c2ccc(OCC(O)CNC(C)(C)CC(C)(C)C)cc2)cc1 (stereo not given)
T/C (endpoint: mean survival time, dose: 3.0 mg/kg/injection, schedule: Q01DX009 (ip), vehicle: saline with Tween-80): 102 % of control
T/C (endpoint: mean survival time, dose: 3.12 mg/kg/injection, schedule: Q01DX009 (ip), vehicle: Klucel (hydroxypropylcellulose) (HPC)): 93 % of control
T/C (endpoint: mean survival time, dose: 6.0 mg/kg/injection, schedule: Q01DX009 (ip), vehicle: saline with Tween-80): 100 % of control
T/C (endpoint: mean survival time, dose: 6.25 mg/kg/injection, schedule: Q01DX009 (ip), vehicle: Klucel (hydroxypropylcellulose) (HPC)): 94 % of control
T/C (endpoint: mean survival time, dose: 12.0 mg/kg/injection, schedule: Q01DX009 (ip), vehicle: saline with Tween-80): 94 % of control
T/C (endpoint: mean survival time, dose: 12.5 mg/kg/injection, schedule: Q01DX009 (ip), vehicle: Klucel (hydroxypropylcellulose) (HPC)): 100 % of control

O=C(NC(NC(=O)c1ccc(Cl)cc1)C(Cl)(Cl)Cl)c1ccc(Cl)cc1
T/C [8]: 98 % of control
T/C [9]: 88 % of control
T/C [6]: 90 % of control

CC1CCCCCC(=O)c2c(O)cc(O)cc2CC(=O)O1 (stereo not given)
T/C (endpoint: mean survival time, dose: 100.0 mg/kg/injection, schedule: Q01DX001 (ip), vehicle: other): 95 % of control
T/C (endpoint: mean survival time, dose: 200.0 mg/kg/injection, schedule: Q01DX001 (ip), vehicle: other): 118 % of control
T/C (endpoint: mean survival time, dose: 400.0 mg/kg/injection, schedule: Q01DX001 (ip), vehicle: other): 100 % of control

CC[S-].CC[S-].[Ni+2]
T/C (endpoint: mean survival time, dose: 5.0 mg/kg/injection, schedule: Q01DX001 (ip), vehicle: saline): 103 % of control
T/C (endpoint: mean survival time, dose: 10.0 mg/kg/injection, schedule: Q01DX001 (ip), vehicle: saline): 103 % of control
T/C (endpoint: mean survival time, dose: 20.0 mg/kg/injection, schedule: Q01DX001 (ip), vehicle: saline): 103 % of control

COc1ccc(C(OCC2OC(n3cc(C)c(=O)[nH]c3=O)CC2OP(=O)(O)OCC2OC(n3cc(C)c(=O)[nH]c3=O)CC2OP(=O)(O)OCC2OC(n3cc(C)c(=O)[nH]c3=O)CC2OP(=O)(O)OCC2OC(n3cc(C)c(=O)[nH]c3=O)CC2OP(=O)(O)OCC2OC(n3ccc(N)nc3=O)C(O)C2O)(c2ccccc2)c2ccccc2)cc1 (stereo not given)
T/C (endpoint: median survival time, dose: 25.0 mg/kg/injection, schedule: Q01DX005 (ip), vehicle: saline): 108 % of control
T/C (endpoint: median survival time, dose: 50.0 mg/kg/injection, schedule: Q01DX005 (ip), vehicle: saline): 122 % of control
T/C (endpoint: median survival time, dose: 400.0 mg/kg/injection, schedule: Q01DX005 (ip), vehicle: saline): 162 % of control

Nc1nc(N)c2nc(NCc3ccc(C(=O)NC(CCC(=O)O)C(=O)O)cc3)cnc2n1 (stereo not given)
T/C (endpoint: mean survival time, dose: 50.0 mg/kg/injection, schedule: Q01DX009 (ip), vehicle: saline): 103 % of control
T/C [10]: 97 % of control
T/C (endpoint: mean survival time, dose: 100.0 mg/kg/injection, schedule: Q01DX009 (ip), vehicle: saline): 103 % of control
T/C [2]: 96 % of control
T/C (endpoint: mean survival time, dose: 200.0 mg/kg/injection, schedule: Q01DX009 (ip), vehicle: saline): 116 % of control
T/C [4]: 96 % of control
T/C [5]: 100 % of control

O=C(CC1CCCCC1)N/N=C/c1cccc([N+](=O)[O-])c1
T/C [11]: 90 % of control
T/C [12]: 93 % of control
T/C [13]: 90 % of control

CC(C)CNC(=O)c1ccc(N=NN(C)Cc2ccncc2)cc1
T/C [14]: 104 % of control
T/C [11]: 122 % of control
T/C [6]: 105 % of control
T/C [7]: 117 % of control

O=C(O)C1(C(=O)O)CCC1.[NH2-].[NH2-].[Pt+2]
T/C (endpoint: mean survival time, dose: 3.12 mg/kg/injection, schedule: Q01DX009 (ip), vehicle: dextrose): 110 % of control
T/C (endpoint: mean survival time, dose: 6.25 mg/kg/injection, schedule: Q01DX009 (ip), vehicle: dextrose): 118 % of control
T/C (endpoint: mean survival time, dose: 6.25 mg/kg/injection, schedule: Q01DX009 (ip), vehicle: other): 107 % of control
T/C (endpoint: mean survival time, dose: 12.5 mg/kg/injection, schedule: Q01DX009 (ip), vehicle: dextrose): 110 % of control
T/C (endpoint: mean survival time, dose: 12.5 mg/kg/injection, schedule: Q01DX009 (ip), vehicle: saline with Tween-80): 108 % of control
T/C (endpoint: mean survival time, dose: 12.5 mg/kg/injection, schedule: Q04DX003 (ip), vehicle: water): 109 % of control
T/C [15]: 117 % of control
T/C (endpoint: mean survival time, dose: 25.0 mg/kg/injection, schedule: Q01DX009 (ip), vehicle: water): 152 % of control
T/C (endpoint: mean survival time, dose: 25.0 mg/kg/injection, schedule: Q04DX003 (ip), vehicle: water): 112 % of control
T/C (endpoint: mean survival time, dose: 50.0 mg/kg/injection, schedule: Q01DX009 (ip), vehicle: dextrose): 113 % of control
T/C (endpoint: mean survival time, dose: 100.0 mg/kg/injection, schedule: Q01DX009 (ip), vehicle: other): 90 % of control
T/C [11]: 96 % of control
T/C (endpoint: mean survival time, dose: 100.0 mg/kg/injection, schedule: Q04DX003 (ip), vehicle: water): 105 % of control
T/C (endpoint: median survival time, dose: 60.0 mg/kg/injection, schedule: Q01DX009 (ip), vehicle: clinical formulation): 109 % of control
T/C (endpoint: median survival time, dose: 90.0 mg/kg/injection, schedule: Q01DX009 (ip), vehicle: dextrose): 124 % of control

NNS(=O)(=O)c1ccccc1
T/C [8]: 97 % of control
T/C [9]: 97 % of control
T/C [6]: 94 % of control

COc1ccccc1CC(C)N (stereo not given)
T/C (endpoint: mean survival time, dose: 20.0 mg/kg/injection, schedule: Q04DX003 (ip), vehicle: Klucel (hydroxypropylcellulose) (HPC)): 90 % of control
T/C (endpoint: mean survival time, dose: 40.0 mg/kg/injection, schedule: Q04DX003 (ip), vehicle: Klucel (hydroxypropylcellulose) (HPC)): 91 % of control
T/C (endpoint: mean survival time, dose: 80.0 mg/kg/injection, schedule: Q04DX003 (ip), vehicle: Klucel (hydroxypropylcellulose) (HPC)): 96 % of control

C1CC1C(=NN=C(C1CC1)C1CC1)C1CC1
T/C [15]: 97 % of control
T/C [14]: 101 % of control
T/C [6]: 86 % of control

CC(C)CC(NC(=O)CF)C(=O)O (stereo not given)
T/C (endpoint: mean survival time, dose: 0.31 mg/kg/injection, schedule: Q01DX009 (ip), vehicle: saline): 98 % of control and 108 % of control
T/C (endpoint: mean survival time, dose: 0.62 mg/kg/injection, schedule: Q01DX009 (ip), vehicle: saline): 98 % of control
T/C (endpoint: mean survival time, dose: 0.63 mg/kg/injection, schedule: Q01DX009 (ip), vehicle: saline): 111 % of control
T/C (endpoint: mean survival time, dose: 1.25 mg/kg/injection, schedule: Q01DX009 (ip), vehicle: saline): 98 % of control and 106 % of control
T/C (endpoint: mean survival time, dose: 2.5 mg/kg/injection, schedule: Q01DX009 (ip), vehicle: saline): 98 % of control and 100 % of control
T/C (endpoint: mean survival time, dose: 5.0 mg/kg/injection, schedule: Q01DX009 (ip), vehicle: saline): 98 % of control and 110 % of control

Fc1ccc(Nc2c3ccccc3nc3ccccc23)cc1
T/C [11]: 96 % of control

CCOC(=O)/C(C#N)=N/Nc1ccc(Cl)cc1
T/C (endpoint: mean survival time, dose: 100.0 mg/kg/injection, schedule: Q04DX002 (ip), vehicle: saline with Tween-80): 108 % of control
T/C (endpoint: mean survival time, dose: 200.0 mg/kg/injection, schedule: Q04DX002 (ip), vehicle: saline with Tween-80): 100 % of control
T/C (endpoint: mean survival time, dose: 400.0 mg/kg/injection, schedule: Q04DX002 (ip), vehicle: saline with Tween-80): 92 % of control

CCC(C)C(C(=O)OCC[N+](C)(CC)CC)c1ccc(C)c(C)c1 (stereo not given)
T/C (endpoint: mean survival time, dose: 12.5 mg/kg/injection, schedule: Q04DX003 (ip), vehicle: saline): 93 % of control
T/C (endpoint: mean survival time, dose: 25.0 mg/kg/injection, schedule: Q04DX003 (ip), vehicle: saline): 101 % of control
T/C [10]: 97 % of control

CN(CCO)c1c(Cl)c(=O)oc2ccc(Cl)cc12
T/C [11]: 97 % of control
T/C [12]: 101 % of control
T/C [13]: 106 % of control

O=C(CCl)n1nc(Cl)c2ccc([N+](=O)[O-])cc21
T/C [1]: 98 % of control
T/C [3]: 98 % of control

OC12C3CC4C5C3C3(Cl)C(Cl)(Cl)C5(Cl)C(Cl)(C41)C23Cl (stereo not given)
T/C (endpoint: mean survival time, dose: 1.25 mg/kg/injection, schedule: Q01DX001 (ip), vehicle: other): 107 % of control
T/C (endpoint: mean survival time, dose: 2.5 mg/kg/injection, schedule: Q01DX001 (ip), vehicle: other): 103 % of control
T/C (endpoint: mean survival time, dose: 5.0 mg/kg/injection, schedule: Q01DX001 (ip), vehicle: other): 100 % of control

O=C1CC(=O)N2C=CC=CC2=N1
T/C (endpoint: mean survival time, dose: 100.0 mg/kg/injection, schedule: Q04DX002 (ip), vehicle: saline): 122 % of control
T/C (endpoint: mean survival time, dose: 200.0 mg/kg/injection, schedule: Q04DX002 (ip), vehicle: saline): 96 % of control
T/C (endpoint: mean survival time, dose: 400.0 mg/kg/injection, schedule: Q04DX002 (ip), vehicle: saline): 92 % of control
